Experimental data reported in ChEMBL document CHEMBL2412968, “Tetrazole-based deoxyamodiaquines: synthesis, ADME/PK profiling and pharmacological evaluation as potential antimalarial agents” (Bioorg Med Chem, 2013).
In brackets after ≈: the same amount, converted by molar mass.

How the values were obtained:
Plasmodium falciparum [1] = experiment: Antiplasmodial activity chloroquine-resistant Plasmodium falciparum W2 using YOYO-1 staining after 48 hrs by FACS analysis; assay type: functional, organism-based; settings: W2, 48 h
Plasmodium falciparum [2] = experiment: Antiplasmodial activity chloroquine-resistant Plasmodium falciparum K1 infected in human A+ erythrocytes assessed as reduction of [3H]hypoxanthine incorporation after 24 hrs by scintillation counting; assay type: functional, organism-based
Plasmodium falciparum [3] = experiment: Antiplasmodial activity chloroquine-sensitive Plasmodium falciparum 3D7 infected in human A+ erythrocytes assessed as reduction of [3H]hypoxanthine incorporation after 24 hrs by scintillation counting; assay type: functional, organism-based
physchem [4] = settings: phosphate buffered saline, pH 7.4
physchem [5] = settings: 0.01 M HCl, pH 2
CHO = experiment: Cytotoxicity against CHO cells by MTT assay; assay type: cell-based; settings: Cricetulus griseus
[6] = Oral bioavailability in albino Wistar rat at 10 mg/kg; assay type: ADME, organism-based; settings: in vivo
[7] = AUC (infinity) in albino Wistar rat at 1 mg/kg, iv; assay type: ADME, organism-based; set-up: time infinity, dose 1 mg/kg, route intravenous; settings: plasma
[8] = Cmax in albino Wistar rat at 10 mg/kg, po; assay type: ADME, organism-based; set-up: dose 10 mg/kg, route oral; settings: in vivo
[9] = Tmax in albino Wistar rat at 10 mg/kg, po; assay type: ADME, organism-based; set-up: dose 10 mg/kg, route oral; settings: in vivo
[10] = AUC (infinity) in albino Wistar rat at 10 mg/kg, po; assay type: ADME, organism-based; set-up: time infinity, dose 10 mg/kg, route oral; settings: plasma
[11] = Volume of distribution at steady state in albino Wistar rat at 1 mg/kg, iv; assay type: ADME, organism-based; set-up: dose 1 mg/kg, route intravenous; settings: in vivo, read-out: Vdss
[12] = Half life in albino Wistar rat at 1 mg/kg, iv; assay type: ADME, organism-based; set-up: dose 1 mg/kg, route intravenous; settings: in vivo
[13] = Clearance in albino Wistar rat at 1 mg/kg, iv; assay type: ADME, organism-based; set-up: dose 1 mg/kg, route intravenous; settings: in vivo
Cytochrome P450 2E1 = Cytochrome P450 2E1 (Homo sapiens, UniProt P05181); experiment: Inhibition of CYP2E1 in human liver microsomes assessed as chlorzoxazone 6-hydroxylation after 20 mins by LC-MS analysis; assay type: ADME, Microsome
Cytochrome P450 2B6 = target: T1, Cytochrome P450 2B6 (Homo sapiens, UniProt P20813); experiment: Inhibition of CYP2B6 in human liver microsomes assessed as bupropion hydroxylation after 20 mins by LC-MS analysis; assay type: ADME, Microsome
T1 sequence (P20813 whole entry): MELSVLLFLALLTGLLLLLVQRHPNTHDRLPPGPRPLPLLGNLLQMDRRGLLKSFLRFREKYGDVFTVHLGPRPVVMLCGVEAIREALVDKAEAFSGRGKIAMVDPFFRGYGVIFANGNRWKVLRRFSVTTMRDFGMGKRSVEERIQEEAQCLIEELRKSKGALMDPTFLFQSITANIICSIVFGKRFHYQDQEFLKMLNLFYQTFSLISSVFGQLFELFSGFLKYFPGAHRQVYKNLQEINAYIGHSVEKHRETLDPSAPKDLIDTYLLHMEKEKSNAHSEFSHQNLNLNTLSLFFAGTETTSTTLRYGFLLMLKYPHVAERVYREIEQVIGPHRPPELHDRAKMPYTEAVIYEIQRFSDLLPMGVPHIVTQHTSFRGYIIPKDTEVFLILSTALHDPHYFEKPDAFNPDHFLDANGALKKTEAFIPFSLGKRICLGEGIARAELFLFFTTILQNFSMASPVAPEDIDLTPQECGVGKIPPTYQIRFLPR

Cytochrome P450 2A6 = target: T2, Cytochrome P450 2A6 (Homo sapiens, UniProt P11509); experiment: Inhibition of CYP2A6 in human liver microsomes assessed as coumarin 7-hydroxylation after 20 mins by LC-MS analysis; assay type: ADME, Microsome
T2 sequence (P11509 whole entry): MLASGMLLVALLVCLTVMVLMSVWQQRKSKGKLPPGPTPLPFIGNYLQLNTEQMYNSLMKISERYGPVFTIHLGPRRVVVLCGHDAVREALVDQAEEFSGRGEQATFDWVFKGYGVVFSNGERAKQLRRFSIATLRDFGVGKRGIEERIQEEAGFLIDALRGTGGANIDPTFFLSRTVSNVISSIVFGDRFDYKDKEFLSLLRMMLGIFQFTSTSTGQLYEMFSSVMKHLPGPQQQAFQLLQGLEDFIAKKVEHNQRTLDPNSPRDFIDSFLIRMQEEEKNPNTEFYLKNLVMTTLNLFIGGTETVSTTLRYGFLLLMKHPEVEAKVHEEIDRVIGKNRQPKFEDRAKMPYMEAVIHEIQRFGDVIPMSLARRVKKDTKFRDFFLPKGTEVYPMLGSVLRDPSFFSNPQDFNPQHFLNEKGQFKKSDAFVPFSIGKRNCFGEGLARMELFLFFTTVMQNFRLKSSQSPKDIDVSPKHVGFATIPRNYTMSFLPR

Cytochrome P450 3A4 = Cytochrome P450 3A4 (Homo sapiens, UniProt P08684); experiment: Inhibition of CYP3A4 in human liver microsomes assessed as midazolam 1'-hydroxylation after 20 mins by LCMS analysis; assay type: ADME, Microsome
Cytochrome P450 2D6 = Cytochrome P450 2D6 (Homo sapiens, UniProt P10635); experiment: Inhibition of CYP2D6 in human liver microsomes assessed as bufuralol 1'-hydroxylation after 20 mins by LCMS analysis; assay type: ADME, Microsome
Cytochrome P450 2C19 = Cytochrome P450 2C19 (Homo sapiens, UniProt P33261); experiment: Inhibition of CYP2C19 in human liver microsomes assessed as S-mephenytoin 4'-hydroxylation after 20 mins by LCMS analysis; assay type: ADME, Microsome
Cytochrome P450 2C9 = Cytochrome P450 2C9 (Homo sapiens, UniProt P11712); experiment: Inhibition of CYP2C9 in human liver microsomes assessed as diclofenac 4'-hydroxylation after 20 mins by LCMS analysis; assay type: ADME, Microsome
Cytochrome P450 2C8 = target: T3, Cytochrome P450 2C8 (Homo sapiens, UniProt P10632); experiment: Inhibition of CYP2C8 in human liver microsomes assessed as paclitaxel 6alpha-hydroxylation after 20 mins by LC-MS analysis; assay type: ADME, Microsome
T3 sequence (P10632 whole entry): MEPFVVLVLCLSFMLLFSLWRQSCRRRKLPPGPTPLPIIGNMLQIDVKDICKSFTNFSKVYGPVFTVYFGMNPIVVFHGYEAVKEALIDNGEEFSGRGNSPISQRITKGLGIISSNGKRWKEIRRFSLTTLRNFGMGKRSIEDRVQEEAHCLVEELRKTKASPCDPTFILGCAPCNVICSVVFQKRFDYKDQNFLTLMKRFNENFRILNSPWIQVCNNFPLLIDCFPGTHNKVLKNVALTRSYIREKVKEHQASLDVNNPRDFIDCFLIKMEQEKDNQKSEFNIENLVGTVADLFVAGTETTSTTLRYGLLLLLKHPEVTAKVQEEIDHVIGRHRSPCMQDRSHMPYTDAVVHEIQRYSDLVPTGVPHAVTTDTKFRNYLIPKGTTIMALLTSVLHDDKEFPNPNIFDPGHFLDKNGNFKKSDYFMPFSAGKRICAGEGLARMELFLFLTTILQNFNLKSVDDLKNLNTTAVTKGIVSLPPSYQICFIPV

Cytochrome P450 1A2 = target: T4, Cytochrome P450 1A2 (Homo sapiens, UniProt P05177); experiment: Inhibition of CYP1A2 in human liver microsomes assessed as phenacetin O-deethylation after 20 mins by LC-MS analysis; assay type: ADME, Microsome
T4 sequence (P05177 whole entry): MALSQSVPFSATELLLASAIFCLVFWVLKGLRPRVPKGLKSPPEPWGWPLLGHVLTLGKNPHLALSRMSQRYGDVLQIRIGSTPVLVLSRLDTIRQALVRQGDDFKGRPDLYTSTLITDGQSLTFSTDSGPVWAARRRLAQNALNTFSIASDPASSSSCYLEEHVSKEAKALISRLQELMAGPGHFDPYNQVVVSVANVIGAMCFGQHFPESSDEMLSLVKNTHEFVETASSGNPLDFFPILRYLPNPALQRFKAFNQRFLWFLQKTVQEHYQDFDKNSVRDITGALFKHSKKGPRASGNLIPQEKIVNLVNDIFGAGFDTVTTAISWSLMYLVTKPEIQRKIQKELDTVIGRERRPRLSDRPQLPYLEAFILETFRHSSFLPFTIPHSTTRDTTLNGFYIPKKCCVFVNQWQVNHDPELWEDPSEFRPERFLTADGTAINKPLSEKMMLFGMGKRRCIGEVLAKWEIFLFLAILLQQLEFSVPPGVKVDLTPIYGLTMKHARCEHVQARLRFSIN

Hepatocyte [14] = experiment: Metabolic stability in human hepatocytes assessed as level of GSH adduct at 5 uM after 1 hr; assay type: ADME, cell-based
Hepatocyte [15] = experiment: Metabolic stability in rat hepatocytes assessed as level of GSH adduct at 5 uM after 1 hr; assay type: ADME, cell-based
Liver microsomes [16] = experiment: Metabolic stability in human liver microsomes assessed as level of GSH adduct at 5 uM after 1 hr; assay type: ADME, Microsome
Liver microsomes [17] = experiment: Metabolic stability in rat liver microsomes assessed as level of GSH adduct at 5 uM after 1 hr; assay type: ADME, Microsome
Hepatocyte [18] = experiment: Drug metabolism in rat hepatocytes assessed as formation of oxidation product at 5 uM after 1 hr; assay type: ADME, cell-based
Liver microsomes [19] = experiment: Drug metabolism in rat liver microsomes assessed as formation of N-dealkylation product at 5 uM after 1 hr; assay type: ADME, Microsome
Liver microsomes [20] = experiment: Metabolic stability of the compound in rat liver microsomes at 1 uM after 40 mins; assay type: ADME, Microsome
Liver microsomes [21] = experiment: Metabolic stability of the compound in human liver microsomes at 1 uM after 40 mins; assay type: ADME, Microsome

Cytochrome P450 3A4, sequence (P08684 whole entry): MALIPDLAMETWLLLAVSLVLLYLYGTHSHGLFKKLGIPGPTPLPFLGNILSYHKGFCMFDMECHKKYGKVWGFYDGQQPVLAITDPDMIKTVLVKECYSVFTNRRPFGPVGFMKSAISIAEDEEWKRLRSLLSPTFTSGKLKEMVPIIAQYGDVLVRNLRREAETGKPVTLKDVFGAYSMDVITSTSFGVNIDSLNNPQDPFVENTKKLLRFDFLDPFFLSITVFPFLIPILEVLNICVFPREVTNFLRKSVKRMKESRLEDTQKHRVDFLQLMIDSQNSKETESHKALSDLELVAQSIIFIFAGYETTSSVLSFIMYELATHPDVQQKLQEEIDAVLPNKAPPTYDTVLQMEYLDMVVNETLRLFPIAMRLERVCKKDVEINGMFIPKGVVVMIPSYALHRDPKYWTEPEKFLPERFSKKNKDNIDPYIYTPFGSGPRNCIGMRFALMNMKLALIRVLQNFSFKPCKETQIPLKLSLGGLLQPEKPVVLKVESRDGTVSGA
Cytochrome P450 2D6, sequence (P10635 whole entry): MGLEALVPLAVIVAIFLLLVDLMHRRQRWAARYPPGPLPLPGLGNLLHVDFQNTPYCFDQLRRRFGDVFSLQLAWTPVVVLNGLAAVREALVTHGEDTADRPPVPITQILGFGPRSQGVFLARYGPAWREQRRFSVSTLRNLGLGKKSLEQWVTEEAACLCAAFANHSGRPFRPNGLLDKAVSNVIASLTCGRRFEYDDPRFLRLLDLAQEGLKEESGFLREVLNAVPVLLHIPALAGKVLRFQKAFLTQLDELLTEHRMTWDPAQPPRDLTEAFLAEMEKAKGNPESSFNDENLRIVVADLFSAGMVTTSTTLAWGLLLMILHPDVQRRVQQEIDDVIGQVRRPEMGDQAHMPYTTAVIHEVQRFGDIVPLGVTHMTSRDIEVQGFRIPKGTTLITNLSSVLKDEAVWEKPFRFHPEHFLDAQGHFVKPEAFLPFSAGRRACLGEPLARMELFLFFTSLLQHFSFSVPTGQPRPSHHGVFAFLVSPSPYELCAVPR
Cytochrome P450 2C9, sequence (P11712 whole entry): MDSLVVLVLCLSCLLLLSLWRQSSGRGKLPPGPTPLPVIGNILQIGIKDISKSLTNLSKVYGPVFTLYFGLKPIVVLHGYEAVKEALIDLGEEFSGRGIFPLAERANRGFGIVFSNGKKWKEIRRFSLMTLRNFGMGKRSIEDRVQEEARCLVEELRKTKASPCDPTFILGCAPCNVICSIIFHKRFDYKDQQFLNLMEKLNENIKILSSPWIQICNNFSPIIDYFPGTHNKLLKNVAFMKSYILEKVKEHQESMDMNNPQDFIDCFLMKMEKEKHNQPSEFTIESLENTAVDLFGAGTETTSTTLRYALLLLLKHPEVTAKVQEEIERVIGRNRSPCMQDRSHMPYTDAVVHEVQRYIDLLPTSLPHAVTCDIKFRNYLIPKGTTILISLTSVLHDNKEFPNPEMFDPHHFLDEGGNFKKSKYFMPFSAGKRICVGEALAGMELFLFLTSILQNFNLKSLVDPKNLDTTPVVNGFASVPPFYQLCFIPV
Cytochrome P450 2C19, sequence (P33261 whole entry): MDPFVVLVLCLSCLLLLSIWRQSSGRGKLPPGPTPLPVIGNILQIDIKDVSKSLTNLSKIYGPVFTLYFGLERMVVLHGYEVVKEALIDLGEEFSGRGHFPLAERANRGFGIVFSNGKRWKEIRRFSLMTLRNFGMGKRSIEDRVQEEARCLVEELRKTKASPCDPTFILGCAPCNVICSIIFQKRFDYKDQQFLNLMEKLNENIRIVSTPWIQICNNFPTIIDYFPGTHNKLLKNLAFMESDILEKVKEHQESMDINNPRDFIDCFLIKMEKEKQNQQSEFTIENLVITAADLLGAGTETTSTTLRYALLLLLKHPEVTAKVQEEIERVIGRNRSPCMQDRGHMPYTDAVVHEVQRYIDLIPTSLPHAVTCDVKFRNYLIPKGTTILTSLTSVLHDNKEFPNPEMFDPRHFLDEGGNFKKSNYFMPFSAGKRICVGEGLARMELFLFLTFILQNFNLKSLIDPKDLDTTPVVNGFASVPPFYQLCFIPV
Cytochrome P450 2E1, sequence (P05181 whole entry): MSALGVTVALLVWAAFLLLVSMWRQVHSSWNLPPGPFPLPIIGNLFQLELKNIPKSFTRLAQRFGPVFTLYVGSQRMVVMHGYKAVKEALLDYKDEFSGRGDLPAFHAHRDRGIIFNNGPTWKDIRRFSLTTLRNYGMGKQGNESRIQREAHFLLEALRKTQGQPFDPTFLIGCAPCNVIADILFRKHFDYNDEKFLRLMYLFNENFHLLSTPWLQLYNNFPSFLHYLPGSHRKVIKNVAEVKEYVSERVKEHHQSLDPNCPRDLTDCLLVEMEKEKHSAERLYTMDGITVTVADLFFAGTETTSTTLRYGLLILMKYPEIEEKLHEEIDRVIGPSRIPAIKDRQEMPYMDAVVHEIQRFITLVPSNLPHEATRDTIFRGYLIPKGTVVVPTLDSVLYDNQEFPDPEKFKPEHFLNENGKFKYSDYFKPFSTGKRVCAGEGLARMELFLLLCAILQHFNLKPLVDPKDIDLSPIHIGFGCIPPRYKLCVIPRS

## CCN(CC)Cc1cc(Nc2ccnc3cc(Cl)ccc23)ccc1O
Plasmodium falciparum [1]
  IC50: 0.401 µM
Plasmodium falciparum [2]
  IC50: 0.027 µM
Plasmodium falciparum [3]
  IC50: 0.001 µM

## CN(C)C(c1cccc(Nc2ccnc3cc(Cl)ccc23)c1)c1nnnn1C(C)(C)C (stereo unspecified)
Plasmodium falciparum [1]
  IC50: 0.227 µM
Plasmodium falciparum [2]
  IC50: 0.15 µM
Plasmodium falciparum [3]
  IC50: 0.052 µM
Physchem [4]
  solubility kinetic at 2 h: 7.3 µM (≈ 3.18 µg/mL)
Physchem [5]
  solubility kinetic at 2 h: > 200 µM

## CC(C)(C)n1nnnc1C(c1cccc(Nc2ccnc3cc(Cl)ccc23)c1)N1CCCC1 (stereo unspecified)
CHO
  IC50: 117 µM
[6]
  bioavailability: 3.3%
[7]
  AUC(0-inf): 63.5 ng·h/mL
[8]
  Cmax: 13.3 ng/mL
[9]
  Tmax: 15 min
[10]
  AUC(0-inf): 21 ng·h/mL
[11]
  Vd: 12.2 L/kg
[12]
  half-life: 51 min
[13]
  clearance: 278 mL/min/kg
Cytochrome P450 2E1
  IC50: > 20 µM
Cytochrome P450 2B6
  IC50: > 20 µM
Cytochrome P450 2A6
  IC50: > 20 µM
Cytochrome P450 3A4
  IC50: 1.45 µM
Cytochrome P450 2D6
  IC50: 3.46 µM
Cytochrome P450 2C19
  IC50: 13.8 µM
Cytochrome P450 2C9
  IC50: 3.14 µM
Cytochrome P450 2C8
  IC50: 0.12 µM
Cytochrome P450 1A2
  IC50: 2.54 µM
Hepatocyte [14]
  Stability: Stable
Hepatocyte [15]
  Stability: Stable
Liver microsomes [16]
  Stability: Stable
Liver microsomes [17]
  Stability: Stable
Hepatocyte [18]
  Drug metabolism: Active
Liver microsomes [19]
  Drug metabolism: Active
Liver microsomes [20]
  Stability: Unstable
Liver microsomes [21]
  Stability: Unstable
Plasmodium falciparum [1]
  IC50: 0.077 µM
Plasmodium falciparum [2]
  IC50: 0.0096 µM
Plasmodium falciparum [3]
  IC50: 0.01 µM
Physchem [4]
  solubility kinetic at 2 h: < 5 µM
Physchem [5]
  solubility kinetic at 2 h: > 200 µM

## CC(C)(C)n1nnnc1C(c1cccc(Nc2ccnc3cc(Cl)ccc23)c1)N1CCCCC1 (stereo unspecified)
Plasmodium falciparum [1]
  IC50: 0.082 µM
Plasmodium falciparum [2]
  IC50: 0.17 µM
Plasmodium falciparum [3]
  IC50: 0.05 µM
Physchem [4]
  solubility kinetic at 2 h: < 5 µM
Physchem [5]
  solubility kinetic at 2 h: > 200 µM

## CC(C)(C)n1nnnc1C(c1cccc(Nc2ccnc3cc(Cl)ccc23)c1)N1CCOCC1 (stereo unspecified)
Plasmodium falciparum [1]
  IC50: 0.195 µM
Plasmodium falciparum [2]
  IC50: 1.29 µM
Plasmodium falciparum [3]
  IC50: 0.099 µM

## CN(C)C(c1cccc(Nc2ccnc3cc(Cl)ccc23)c1)c1nnnn1CCN1CCOCC1 (stereo unspecified)
Plasmodium falciparum [1]
  IC50: 0.544 µM
Plasmodium falciparum [2]
  IC50: 0.379 µM
Plasmodium falciparum [3]
  IC50: 0.379 µM

## CCN(CC)C(c1cccc(Nc2ccnc3cc(Cl)ccc23)c1)c1nnnn1CCN1CCOCC1 (stereo unspecified)
Plasmodium falciparum [1]
  IC50: 0.194 µM
Plasmodium falciparum [2]
  IC50: 0.245 µM
Plasmodium falciparum [3]
  IC50: 0.03 µM

## Clc1ccc2c(Nc3cccc(C(c4nnnn4CCN4CCOCC4)N4CCCC4)c3)ccnc2c1 (stereo unspecified)
Plasmodium falciparum [1]
  IC50: 3.39 µM
Plasmodium falciparum [2]
  IC50: 0.31 µM
Plasmodium falciparum [3]
  IC50: 0.22 µM
